In brackets after ≈: the same amount, converted by molar mass.
How the values were obtained:
Assay type in all cases: functional
Artemia salina = experiment: Insecticidal activity against Artemia salina; conditions: read-out: LD50 (the source's name)
Escherichia coli = experiment: Antibacterial activity against Escherichia coli by well diffusion method
Staphylococcus aureus [1] = experiment: Antibacterial activity against Staphylococcus aureus assessed as inhibition zone at 100 ug/disc by well diffusion method; conditions: read-out: IZ
Staphylococcus aureus [2] = experiment: Antibacterial activity against Staphylococcus aureus by well diffusion method

C=CC(C)(C)c1[nH]c2c(CC=C(C)C)cc(CC=C(C)C)cc2c1C[C@@H]1NC(=O)[C@H](CO)NC1=O [CRISTATUMIN B]
LC50 (Artemia salina): 74.4 µg/mL (≈ 156 µM)

C=CC(C)(C)c1[nH]c2ccc(CC=C(C)C)cc2c1/C=C1\NC(=O)[C@H](C)NC1=O [ISOECHINULIN A]
LC50 (Artemia salina): 16.9 µg/mL (≈ 43.2 µM)

C=CC(C)(C)c1[nH]c2ccccc2c1/C=C1\NC(=O)[C@H](CO)NC1=O [CRISTATUMIN A]
MIC (Escherichia coli): 64 µg/mL (≈ 189 µM)

C=CC(C)(C)c1[nH]c2c(CC=C(C)C)cc(CC=C(C)C)cc2c1C[C@@H]1NC(=O)[C@H](C)NC1=O [ECHINULIN]
zone of inhibition at 100 µg/disc (Staphylococcus aureus [1]): 8 mm

O=C(N[C@H](CO)[C@H](O)c1ccc([N+](=O)[O-])cc1)C(Cl)Cl [CHLORAMPHENICOL]
MIC (Staphylococcus aureus [2]): 4 µg/mL (≈ 12.4 µM) | MIC (Escherichia coli): 4 µg/mL (≈ 12.4 µM)

C=CC(C)(C)c1[nH]c2ccc(CC=C(C)C)cc2c1C[C@@H]1NC(=O)[C@H](C)NC1=O [TARDIOXOPIPERAZINE A]
MIC (Staphylococcus aureus [2]): 8 µg/mL (≈ 20.3 µM)

C=CC(C)(C)c1[nH]c2ccccc2c1/C=C(\NC(=O)C(N)=O)C(=O)OC [CRISTATUMIN D]
zone of inhibition at 100 µg/disc (Staphylococcus aureus [1]): 8 mm

C=CC(C)(C)c1[nH]c2c(CC=C(C)C)cccc2c1/C=C1\NC(=O)[C@H](C)NC1=O [VARIECOLORIN G]
LC50 (Artemia salina): 42.6 µg/mL (≈ 109 µM)

Source: ChEMBL document CHEMBL2046288, “Cristatumins A-D, new indole alkaloids from the marine-derived endophytic fungus Eurotium cristatum EN-220” (2012)
